This passage reports solubility and solubility in squalene results from patent publication US9636410B2, “Cationic oil-in-water emulsions” (priority 2011, dated 2017).

Data set [1] can be described thus: physchem. Conditions: oil or lipid, thermodynamic from solid.
Data set [2] can be described thus: Solubility of fatty acids in squalene. To be noted: for solubility: oil or lipid, thermodynamic from solid.
Where [3] appears, read: 4 °C, solubility in squalene, 4° C. (overnight), solution at the fatty acid's top concentration left at 4° C. overnight.
The mark [4] stands for this setting: 60 °C, solubility in squalene at 40 mg/mL, mixed with squalene at 60° C.
The mark [5] stands for this setting: 60 °C, solubility in squalene at 5 mg/mL, mixed with squalene at 60° C.
Where [6] appears, read: 60 °C, solubility in squalene at 10 mg/mL, mixed with squalene at 60° C.
[7] abbreviates: 60 °C, solubility in squalene at 20 mg/mL, mixed with squalene at 60° C.

Broadly, the solubility is the concentration that dissolves in the medium under given conditions. `CCCCCCCC/C=C/CCCCCCCC(=O)O` [Elaidic Acid (18:1)-trans, Elaidic Acid]: the solubility was < 40 mg/mL in data set [1] (setting [3]) and > 40 mg/mL in data set [1] (setting [4]).
Take `CCCCCCCCCCCCCCCCCCC(=O)O` [Nonadecanoic Acid]: the solubility is < 40 mg/mL in data set [1] (setting [3]); < 5 mg/mL in data set [1] (setting [5]); < 10 mg/mL in data set [1] (setting [6]); < 20 mg/mL in data set [1] (setting [7]); < 40 mg/mL in data set [1] (setting [4]).
`CC/C=C\C/C=C\C/C=C\C/C=C\C/C=C\C/C=C\CCC(=O)O` [Docosahexaenoic Acid (22:6), Docosahexaenoic Acid]: the solubility in data set [1] (setting [3]) and in data set [1] (setting [4]) was > 40 mg/mL in each case.
With `CCCCCCCC/C=C\CCCCCCCCCCCC(=O)O` [Erucic Acid (22:1), Erucic Acid], the solubility in data set [1] (4 °C) and in data set [1] (60 °C) was > 40 mg/mL each time.
For `CCCCCC/C=C\CCCCCCCC(=O)O` [Palmitoleic Acid (16:1), Palmitoleic Acid], the solubility in data set [1] (setting [3]) and in data set [1] (setting [4]) was > 40 mg/mL throughout.
For the molecule `CCCCCCCCCCCCCCC(=O)O` [Pentadecanoic Acid], the solubility is < 40 mg/mL in data set [1] (setting [3]) and > 40 mg/mL in data set [1] (setting [4]).
On to `CCCCCCCCCCC/C=C\CCCCC(=O)O` [Petroselinic Acid (18:1), Petroselinic Acid], for which the solubility in data set [2] (4 °C) and in data set [2] (60 °C) was > 40 mg/mL in each case.
As for `CCCCCCCCCCCCCCCCCCCCC(=O)O` [Heneicosanoic Acid], the solubility in data set [1] (setting [3]) is < 40 mg/mL; in data set [1] (setting [5]), < 5 mg/mL; in data set [1] (setting [6]), < 10 mg/mL; in data set [1] (setting [7]) it was < 20 mg/mL; in data set [1] (setting [4]) it was < 40 mg/mL.
As to `CCCCCCCCCCCCC(=O)O` [Tridecanoic Acid], the solubility was < 40 mg/mL in data set [1] (setting [3]) and > 40 mg/mL in data set [1] (setting [4]).
On to `CCCCCCCCCCCCCCCCC(=O)O` [Heptadecanoic Acid], for which the solubility in data set [1] (setting [3]) was < 40 mg/mL; in data set [1] (setting [5]), > 5 mg/mL; in data set [1] (setting [6]), < 10 mg/mL; in data set [1] (setting [7]) it was < 20 mg/mL; in data set [1] (setting [4]), < 40 mg/mL.
Take `CCCCCCCC/C=C\CCCCCCCCCCCCCC(=O)O` [Nervonic Acid (24:1), Nervonic Acid]: the solubility is < 40 mg/mL in data set [1] (setting [3]) and > 40 mg/mL in data set [1] (setting [4]).
Take `CCCCCCCCCCC(=O)O` [Undecanoic Acid]: the solubility in data set [1] (setting [3]) and in data set [1] (setting [4]) was > 40 mg/mL in each case.
Take `CCCCCCCCCCCCCCCCCCCCCC(=O)O` [Behenic Acid (22:0), Behenic Acid]: the solubility in data set [1] (setting [3]) was < 40 mg/mL; in data set [1] (setting [5]), < 5 mg/mL; in data set [1] (setting [6]), < 10 mg/mL; in data set [1] (setting [7]), < 20 mg/mL; in data set [1] (setting [4]), < 40 mg/mL.
As to `CCCCCCCCCCCCCCCCCCCCCCC(=O)O` [Tricosanoic Acid], the solubility in data set [1] (setting [3]) is < 40 mg/mL; in data set [1] (setting [5]), < 5 mg/mL; in data set [1] (setting [6]), < 10 mg/mL; in data set [1] (setting [7]) it was < 20 mg/mL; in data set [1] (setting [4]) it was < 40 mg/mL.
Regarding `CCCCCCCC/C=C\CCCCCCCC(=O)O` [Oleic Acid (18:1)-cis, Oleic Acid], the values for the solubility in squalene result in data set [2] (40 mg/ml) and in data set [2] (4° C. overnight) were “soluble in squalene” and “remained soluble in squalene”, respectively. Moreover, the solubility in data set [1] (setting [3]) and in data set [1] (setting [4]) was > 40 mg/mL throughout.
For the molecule `CCCCCCCCCCCCCCCCCCCCCCCC(=O)O` [Lignoceric Acid (24:0), Lignoceric Acid], the solubility in data set [1] (setting [3]) was < 40 mg/mL; in data set [1] (setting [5]), < 5 mg/mL; in data set [1] (setting [6]) it was < 10 mg/mL; in data set [1] (setting [7]) it was < 20 mg/mL; in data set [1] (setting [4]), < 40 mg/mL.
For `CCCCCCCCCCCCCC(=O)O` [Myristic Acid (14:0), Myristic Acid], the solubility in data set [1] (setting [3]) was < 40 mg/mL; in data set [1] (setting [7]), > 20 mg/mL; in data set [1] (setting [4]) it was < 40 mg/mL.
For the molecule `CC/C=C\C/C=C\C/C=C\CCCCCCCC(=O)O` [Linolenic Acid (18:3), Linolenic Acid], the solubility in data set [1] (setting [3]) and in data set [1] (setting [4]) was > 40 mg/mL throughout.
For `CCCCC/C=C\C/C=C\CCCCCCCC(=O)O` [Linoleic Acid (18:2), Linoleic Acid], the solubility in data set [1] (4 °C) and in data set [1] (60 °C) was > 40 mg/mL each time.
Take `CCCCCCCCCCCC(=O)O` [Lauric acid (12:0), Lauric acid]: the solubility in data set [1] (4 °C) was < 40 mg/mL; in data set [1] (60 °C), > 40 mg/mL.
For `CCCCCCCCCCCCCCCCCCCC(=O)O` [Arachidic Acid (20:0), Arachidic Acid], the solubility in data set [1] (setting [3]) was < 40 mg/mL; in data set [1] (setting [5]) it was > 5 mg/mL; in data set [1] (setting [6]), < 10 mg/mL; in data set [1] (setting [7]) it was < 20 mg/mL; in data set [1] (setting [4]), < 40 mg/mL.
